Read-outs that look alike come from different tables or passages of the source.

The nature of the data set: Tissue half-life (t1/2) and Cmax in plasma, brain, kidney and liver after oral administration to CD-1 mice. Type of data set: in vivo. Particulars: 30 mg/kg oral gavage; for half-life: male, mouse. The method, then: In vivo studies were conducted to observe the effect of the compounds of formula IA, IB, IIA, and IIIB in the subject animal. Male CD-1 mice, body weight of 20 grams at arrival, were used in these studies. Mice were given 30 mg/kg of compound in HPMC/Tween solution or suspension via oral gavage. Plasma, brain, and liver samples were collected at time periods of 1, 2, 4, 8, and 24 hours post dosing. One mouse was used per time point. Thus, a total of 5 mice were used for each compound tested. For sample collection, mice were euthanized with CO2. Blood samples were taken by cardiac puncture and kept on ice. Brain and liver samples were collected immediately after bleeding and the samples were kept on dry ice. For calculation of tissue half-lives (t1/2s), the terminal rate constant k was estimated by the absolute value of the slope of a log-linear regression of the terminal phase of the tissue concentration-time profile. The tissue half-life t1/2 is In(2)/k.
The following table includes t1/2 data for plasma, brain, kidney, and liver obtained after oral administration.

[1] abbreviates: brain, read-out: Tissue Half-Lives, Brain (converted).
[2] abbreviates: liver, read-out: Tissue Half-Lives, Liver (converted).
Where [3] appears, read: plasma, read-out: Tissue Half-Lives, Plasma (converted).

In the case of `COc1ccc(CCn2c(NC3CC3)nc3cc(NC(=N[C@H]4C[C@H]5C[C@@H]([C@@H]4C)C5(C)C)N4CC(=O)N[C@@H](C)C4)ccc3c2=O)c(F)c1` [Example 224, (3S)-N-{2-(cyclopropylamino)-3-[2-(2-fluoro-4-methoxyphenyl)ethyl]-4-oxo-3,4-dihydroquinazolin-7-yl}-3-methyl-5-oxo-N′-[(1S, 2S, 3S, 5R)-2,6,6-trimethylbicyclo[3.1.1]hept-3-yl]piperazine-1-carboximidamide], for the setting “liver”, the “Tissue Half-Lives, Liver” value is given as 3.1 h.
On to `C[C@@H]1[C@@H](N=C(Nc2ccc3c(=O)n(CCc4ccc(Cl)cc4)c(C4CCCNC4)nc3c2)N2CC(=O)N[C@@H](C)C2)C[C@H]2C[C@@H]1C2(C)C` (stereo partly drawn) [Example 241, (3S)-N-{3-[2-(4-chlorophenyl)ethyl]-4-oxo-2-piperidin-3-yl-3,4-dihydroquinazolin-7-yl}-3-methyl-5-oxo-N′-[(1S, 2S, 3S, 5R)-2,6,6-trimethylbicyclo[3.1.1]hept-3-yl]piperazine-1-carboximidamide], for which the half-life was 51 h under setting [1], 17 h under setting [2] and 21 h under setting [3].
In the case of `COc1ccc(CCn2c(-c3cccnc3)nc3cc(N/C(=N/C4C[C@H]5C[C@@H]([C@@H]4C)C5(C)C)N4CCN(C#N)[C@@H](C)C4)ccc3c2=O)c(F)c1` (stereo partly drawn) [Example 246, (3S)-4-cyano-N-{3-[2-(2-fluoro-4-methoxyphenyl)ethyl]-4-oxo-2-pyridin-3-yl-3,4-dihydroquinazolin-7-yl}-3-methyl-N-[(1S, 2S, 3S, 5R)-2,6,6-trimethylbicyclo[3.1.1]hept-3-yl]piperazine-1-carboximidamide], the “Tissue Half-Lives, Brain” value (brain) was found to be 5.8 h.
Turning to `COc1ccc(CCn2c(C#N)nc3cc(NC(=NC4C[C@H]5C[C@@H]([C@@H]4C)C5(C)C)N4CCN[C@@H](CF)C4)ccc3c2=O)c(F)c1` (stereo partly drawn) [Example 256, (3R)-N-{2-cyano-3-[2-(2-fluoro-4-methoxyphenyl)ethyl]-4-oxo-3,4-dihydroquinazolin-7-yl}-3-(fluoromethyl)-N′-[(1S, 2S, 5R)-2,6,6-trimethylbicyclo[3.1.1]hept-3-yl]piperazine-1-carboximidamide], the half-life under setting [1] was 15 h, the half-life under setting [2] is 4.3 h and the half-life under setting [3] was 5.4 h.
Take `C[C@@H]1[C@@H](/N=C(/Nc2ccc3c(=O)n(CCc4ccc(Cl)cc4Cl)cnc3c2)N2CCNC(=O)C2)C[C@@H]2C[C@H]1C2(C)C` [Example 260, N-{3-[2-(2,4-dichlorophenyl)ethyl]-4-oxo-3,4-dihydroquinazolin-7-yl}-3-oxo-N′-[(1R, 2S, 3S, 5S)-2,6,6-trimethylbicyclo[3.1.1]hept-3-yl]piperazine-1-carboximidamide]: the “Tissue Half-Lives, Kidney” value is listed as 7.3 h.
`COc1ccc(CCn2c(-c3cccnc3)nc3cc(N/C(=N/[C@H]4C[C@@H]5C[C@H]([C@@H]4C)C5(C)C)N4C[C@@H](C)N(O)[C@@H](C)C4)ccc3c2=O)c(F)c1` [Example 296, (3R, 5S)-N-[3-{2-[2-fluoro-4-(methyloxy)phenyl]eth-yl}-4-oxo-2-(3-pyridinyl)-3,4-dihydro-7-quinazolinyl]-4-hydroxy-3,5-dimethyl-N′-[(1R, 2S, 3S, 5S)-2,6,6-trimethylbicyclo[3.1.1]hept-3-yl]-1-piperazinecarboximida-mide]: the “Tissue Half-Lives, Kidney” value was 3.3 h.
